One test concerns the target T1, PDGFRalpha(V561D) (Homo sapiens, UniProt P16234, V561D).
T1 construct: recombinant human PDGFRalpha, amino acids 550end containing the V561 D mutation; 6His (N)
In words: PDGFRalpha(V561D) assay. Type of test: biochemical. Particulars: recombinant human PDGFRalpha aa 550-end, 200 μM ATP, 1.4E-06 means 1.4×10^−6, read-out: Inhibition (IC50) of PDGFRα (V561D). The protocol: PDGFRalpha(V561D) (N-terminal 6His-tagged, recombinant human PDGFRalpha, amino acids 550end containing the V561 D mutation) is incubated with 8 mM MOPS pH 7.0, 0.2 mM EDTA, 250 μM GGMEDIYEFMGGKKK, 10 mM MgAcetate and [gamma-33P-ATP] (specific activity approx. 500 cpm/pmol, concentration 200 μM). The reaction is initiated by the addition of the MgATP mix. After incubation for 40 minutes at room temperature, the reaction is stopped by the addition of 3% phosphoric acid solution. 10 μL of the reaction is then spotted onto a P30 filtermat and washed three times for 5 minutes in 75 mM phosphoric acid and once in methanol prior to drying and scintillation counting.

For a further test, the target named is T2, c-Kit(V654A) (Homo sapiens, UniProt P10721, V654A).
T2 construct: amino acids 544-end containing the V654A mutation; GST (N)
T2 sequence (P10721 544-976 V654A): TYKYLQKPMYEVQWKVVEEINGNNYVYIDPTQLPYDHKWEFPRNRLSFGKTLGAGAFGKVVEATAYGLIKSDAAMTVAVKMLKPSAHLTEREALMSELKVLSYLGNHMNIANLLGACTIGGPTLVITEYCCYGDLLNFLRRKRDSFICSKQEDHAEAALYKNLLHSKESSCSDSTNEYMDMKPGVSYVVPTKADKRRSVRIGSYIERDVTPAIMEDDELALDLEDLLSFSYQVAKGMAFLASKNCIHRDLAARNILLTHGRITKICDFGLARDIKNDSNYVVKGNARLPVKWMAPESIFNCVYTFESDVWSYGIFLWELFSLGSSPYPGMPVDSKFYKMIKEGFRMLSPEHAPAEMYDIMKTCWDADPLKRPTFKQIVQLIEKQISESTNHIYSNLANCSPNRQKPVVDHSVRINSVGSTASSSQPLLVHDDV
Kind of test: c-Kit(V654A) assay. Type of test: biochemical. Particulars: recombinant human c-Kit aa 544-end, 200 μM ATP, 1.4E-06 means 1.4×10^−6, read-out: Inhibition (IC50) of c-KIT (V654A). A digest of the protocol:
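Radiometric filter-binding read-out: substrate 33P incorporation counted by scintillation after P30 filtermat washes in 75 mM phosphoric acid and methanol. Enzyme: N-GST recombinant human c-Kit aa 544-end carrying V654A.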

For 22 molecules, IC50 results are on record in patent publication US11939314B2, “Quinolin-2-one derivatives” (MERCK PATENT GMBH, priority 2016, dated 2024).

T1 sequence (P16234 550-1089 V561D): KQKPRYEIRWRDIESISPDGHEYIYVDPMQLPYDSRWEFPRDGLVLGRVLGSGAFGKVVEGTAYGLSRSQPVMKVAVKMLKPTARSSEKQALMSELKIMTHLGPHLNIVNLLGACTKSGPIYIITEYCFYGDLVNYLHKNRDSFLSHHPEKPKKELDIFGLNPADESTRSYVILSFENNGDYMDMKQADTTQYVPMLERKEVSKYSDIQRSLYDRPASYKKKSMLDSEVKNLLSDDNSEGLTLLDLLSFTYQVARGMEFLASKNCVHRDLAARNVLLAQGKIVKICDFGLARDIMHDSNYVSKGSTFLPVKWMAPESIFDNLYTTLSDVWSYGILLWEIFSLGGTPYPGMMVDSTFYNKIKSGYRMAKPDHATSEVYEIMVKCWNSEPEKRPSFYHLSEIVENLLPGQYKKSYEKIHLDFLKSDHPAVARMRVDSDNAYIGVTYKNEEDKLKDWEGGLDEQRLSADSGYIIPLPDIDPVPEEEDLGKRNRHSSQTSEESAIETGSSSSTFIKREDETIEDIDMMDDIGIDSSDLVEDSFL

As usually defined, the IC50 is the midpoint of a concentration-inhibition curve. On to `CCN(CC)CCNC(=O)c1ccc(-n2cc(-c3cc4cc(F)c(F)cc4[nH]c3=O)nn2)cc1` [A187, N-(2-diethylamino-ethyl)-4-[4-(6,7-difluoro-2-oxo-1,2-dihydro-quinolin-3-yl)-[1,2,3]triazol-1-yl]-benzamide], for which the values for the IC50 on PDGFRalpha(V561D) and on c-Kit(V654A) were 76 nM and 36 nM, respectively.

For the molecule `O=C(NCCN1CCOCC1)c1ccc(-n2cc(-c3cc4ccccc4[nH]c3=O)nn2)cc1` [A21, N-(2-morpholin-4-yl-ethyl)-4-[4-(2-oxo-1,2-dihydro-quinolin-3-yl)-[1,2,3]triazol-1-yl]-benzamide], the IC50 was 32 nM on PDGFRalpha(V561D) and 79 nM at c-Kit(V654A).

Take `NC1CCN(C(=O)c2ccc(-n3cc(-c4cc5cc(F)c(F)cc5[nH]c4=O)nn3)cc2)CC1` [A143, 3-{1-[4-(4-amino-piperidine-1-carbonyl)-phenyl]-1H-[1,2,3]triazol-4-yl}-6,7-difluoro-1H-quinolin-2-one]: the 50% inhibitory concentration (IC50) on PDGFRalpha(V561D) amounted to 310 nM; on c-Kit(V654A), 19 nM.

For `CN(C)C[C@@H]1CCCN1C(=O)c1ccc(-n2cc(-c3cc4cc(F)ccc4[nH]c3=O)nn2)cc1` [A319, 3-{1-[4-((S)-2-dimethylaminomethyl-pyrrolidine-1-carbonyl)-phenyl]-1H-[1,2,3]triazol-4-yl}-6-fluoro-1H-quinolin-2-one], the values for the IC50 at PDGFRalpha(V561D) and on c-Kit(V654A) were 36 nM and 27 nM, respectively.

With `CN1CCN(C(=O)c2ccc(-n3cc(-c4cc5c(F)cc(F)cc5[nH]c4=O)nn3)cc2)CC1` [A152, 5,7-difluoro-3-{1-[4-(4-methyl-piperazine-1-carbonyl)-phenyl]-1H-[1,2,3]triazol-4-yl}-1H-quinolin-2-one], the values for the concentration for half-maximal inhibition (IC50) at PDGFRalpha(V561D) and at c-Kit(V654A) were 23 nM and 11 nM, respectively.

With `O=C(c1ccc(-n2cc(-c3cc4cc(F)ccc4[nH]c3=O)nn2)cc1)N1C[C@H](O)CO1` [A276, 6-fluoro-3-{1-[4-((S)-4-hydroxy-isoxazolidine-2-carbonyl)-phenyl]-1H-[1,2,3]triazol-4-yl}-1H-quinolin-2-one], the IC50 at PDGFRalpha(V561D) was 1.4 nM; on c-Kit(V654A), 54 nM.

`O=C(c1ccc(-n2cc(-c3cc4cc(F)ccc4[nH]c3=O)nn2)cc1)N1CCC[C@@H]1CN1CCCC1` [A278, 6-fluoro-3-{1-[4-((R)-2-pyrrolidin-1-ylmethyl-pyrrolidine-1-carbonyl)-phenyl]-1H-[1,2,3]triazol-4-yl}-1H-quinolin-2-one]: the IC50 at PDGFRalpha(V561D) was determined as 1.5 nM; on c-Kit(V654A), 17 nM.

Consider `COCCN1CCN(C(=O)c2ccc(-n3cc(-c4cc5cc(F)cnc5[nH]c4=O)nn3)cc2)CC1` [A175, 6-Fluoro-3-(1-{4-[4-(2-methoxy-ethyl)-piperazine-1-carbonyl]-phenyl}-1H-[1,2,3]triazol-4-yl)-1H-[1,8]naphthyridin-2-one], for which the IC50 was found to be 6 nM at PDGFRalpha(V561D) and 92 nM at c-Kit(V654A).

`COCCOC[C@@H]1CCN(C(=O)c2ccc(-n3cc(-c4cc5cc(F)ccc5[nH]c4=O)nn3)cc2)C1` [A210, 6-fluoro-3-(1-{4-[(R)-3-(2-methoxy-ethoxymethyl)-pyrrolidine-1-carbonyl]-phenyl}-1H-[1,2,3]triazol-4-yl)-1H-quinolin-2-one]: the figures for the IC50 at PDGFRalpha(V561D) and on c-Kit(V654A) were 300 nM and 46 nM, respectively.

Consider `COCCO[C@@H]1CCN(C(=O)c2ccc(-n3cc(-c4cc5cc(F)ccc5[nH]c4=O)nn3)cc2)C1` [A252, 6-fluoro-3-(1-{4-[(R)-3-(2-methoxy-ethoxy)-pyrrolidine-1-carbonyl]-phenyl}-1H-[1,2,3]triazol-4-yl)-1H-quinolin-2-one], for which the IC50 on PDGFRalpha(V561D) was 93 nM; at c-Kit(V654A), 98 nM.

Regarding `O=c1[nH]c2ccccc2cc1-c1cnn(-c2ccccc2)c1` [A75, 3-(1-phenyl-1H-pyrazol-4-yl)-1H-quinolin-2-one], the 50% inhibitory concentration (IC50) on PDGFRalpha(V561D) stood at 18 nM; at c-Kit(V654A) it was 48 nM.

Turning to `O=C(c1ccc(-n2cc(-c3cc4cc(Cl)ccc4[nH]c3=O)nn2)cc1)N1CCNCC1` [A123, 6-chloro-3-{1-[4-(piperazine-1-carbonyl)-phenyl]-1H-[1,2,3]triazol-4-yl}-1H-quinolin-2-one], the IC50 at PDGFRalpha(V561D) amounted to 1 nM; at c-Kit(V654A) it was 5 nM.

On to `COC[C@H]1CC[C@H](COC)N1C(=O)c1ccc(-n2cc(-c3cc4cc(F)ccc4[nH]c3=O)nn2)cc1` [A218, 3-{1-[4-((2R,5R)-2,5-bis-methoxymethyl-pyrrolidine-1-carbonyl)-phenyl]-1H-[1,2,3]triazol-4-yl}-6-fluoro-1H-quinolin-2-one], for which the results for the IC50 on PDGFRalpha(V561D) and at c-Kit(V654A) were 59 nM and 64 nM, respectively.

Take `CN1CCN(C(=O)Cn2ccc3cc(-n4cc(-c5cc6cc(F)ccc6[nH]c5=O)nn4)ccc32)CC1` [A178, 6-fluoro-3-(1-{1-[2-(4-methyl-piperazin-1-yl)-2-oxo-ethyl]-1H-indol-5-yl}-1H-[1,2,3]triazol-4-yl)-1H-quinolin-2-one]: the IC50 at PDGFRalpha(V561D) was found to be 1.3 nM; at c-Kit(V654A), 3.9 nM.

Consider `CN(C)C[C@@H]1CCCN1C(=O)c1ccc(-n2cc(-c3cc4cc(F)ccc4[nH]c3=O)cn2)cc1` [A324, 3-{1-[4-((S)-2-dimethylaminomethyl-pyrrolidine-1-carbonyl)-phenyl]-1H-pyrazol-4-yl}-6-fluoro-1H-quinolin-2-one], for which the results for the IC50 on PDGFRalpha(V561D) and on c-Kit(V654A) were 7.2 nM and 270 nM, respectively.

For the molecule `CN1CC[C@@H](Oc2ccc(-n3cc(-c4cc5cc(F)ccc5[nH]c4=O)nn3)cc2)C1` [A367, 6-fluoro-3-{1-[4-((R)-1-methyl-pyrrolidin-3-yloxy)-phenyl]-1H-[1,2,3]triazol-4-yl}-1H-quinolin-2-one], the IC50 on PDGFRalpha(V561D) came to 70 nM; on c-Kit(V654A), 19 nM.

Take `COC[C@@H]1CCN(C(=O)c2ccc(-n3cc(-c4cc5cc(F)c(F)cc5[nH]c4=O)nn3)cc2)C1` [A200, 6,7-difluoro-3-{1-[4-((R)-3-methoxymethyl-pyrrolidine-1-carbonyl)-phenyl]-1H-[1,2,3]triazol-4-yl}-1H-quinolin-2-one]: the IC50 came out at 140 nM on PDGFRalpha(V561D) and 180 nM at c-Kit(V654A).

For `O=C(c1ccc(-n2cc(-c3cc4cc(F)ccc4[nH]c3=O)nn2)cc1)N1C[C@@H](O)CO1` [A274, 6-fluoro-3-{1-[4-((R)-4-hydroxy-isoxazolidine-2-carbonyl)-phenyl]-1H-[1,2,3]triazol-4-yl}-1H-quinolin-2-one], the IC50 at PDGFRalpha(V561D) is 3.3 nM; at c-Kit(V654A), 61 nM.

Consider `CN(C)[C@@H]1CCCN(C(=O)c2ccc(-n3cc(-c4cc5cc(F)c(F)cc5[nH]c4=O)nn3)cc2)C1` [A328, 3-{1-[4-((R)-3-dimethylamino-piperidine-1-carbonyl)-phenyl]-1H-[1,2,3]triazol-4-yl}-6,7-difluoro-1H-quinolin-2-one], for which the IC50 on PDGFRalpha(V561D) came to 97 nM; at c-Kit(V654A) it was 40 nM.

Regarding `O=c1[nH]c2ccccc2cc1-c1cn(-c2ccccc2)nn1` [A27, 3-(1-phenyl-1H-[1,2,3]triazol-4-yl)-1H-quinolin-2-one], the IC50 amounted to 32 nM at PDGFRalpha(V561D) and 50 nM on c-Kit(V654A).

`O=c1[nH]c2ncccc2cc1-c1cnn(-c2ccccc2)c1` [A43, 3-(1-phenyl-1H-pyrazol-4-yl)-1H-[1,8]naphthyridin-2-one]: the IC50 on PDGFRalpha(V561D) is 170 nM; on c-Kit(V654A) it was 140 nM.

Consider `O=C(c1cccc(-n2cc(-c3cc4cc(F)ccc4[nH]c3=O)nn2)c1)N1CCNCC1` [A125, 6-fluoro-3-{1-[3-(piperazine-1-carbonyl)-phenyl]-1H-[1,2,3]triazol-4-yl}-1H-quinolin-2-one], for which the IC50 at PDGFRalpha(V561D) was 6 nM; at c-Kit(V654A), 34 nM.
